The test has as its system anti-OVA-specific IgG1 and IgG2a subclass antibody production. Kind of test: Evaluation test of adjuvant activity (overall conclusion from anti-OVA IgG1 and IgG2a production). The class given is in vivo, BALB/c mice. The conditions noted are these: compound 0.256 μmol in 5% αCD-added saline with OVA 5 μg, dorsal-subcutaneous. Here is the method: 8-Week-old female BALB/c mice were divided into groups (N=6), and each group was primarily immunized by dorsal-subcutaneous administration of (1) ovalbumin (OVA) (5 μg) dissolved in saline as an antigen (OVA single administration group), (2) OVA 5 μg and Addavax™ (mixed with saline at 1:1) dissolved in saline (Addavax™ administration group) as positive control adjuvant, (3) OVA 5 μg and SZ137 0.256 μmol dissolved or dispersed in 5% α-cyclodextrin (hereinafter to be simply referred to as αCD)-added saline (SZ137 administration group), (4) OVA (5 μg) and SZ138 (0.256 μmol) dissolved or dispersed in 5% αCD-added saline (SZ138 administration group), (5) OVA (5 μg) and SZ142 (0.256 μmol) dissolved or dispersed in 5% αCD-added saline (SZ142 administration group), (6) OVA (5 μg) and SZ144 (0.256 μmol) dissolved or dispersed in 5% αCD-added saline (SZ144 administration group), (7) OVA (5 μg) and SZ145 (0.256 μmol) dissolved or dispersed in 5% αCD-added saline (SZ145 administration group), (8) OVA (5 μg) and SZ146 (0.256 μmol) dissolved or dispersed in 5% αCD-added saline (SZ146 administration group), (9) OVA (5 μg) and SZ147 (0.256 μmol) dissolved or dispersed in 5% αCD-added saline (SZ147 administration group), (10) OVA (5 μg) and SZ148 (0.256 μmol) dissolved or dispersed in 5% αCD-added saline (SZ148 administration group), each per mouse. Two week later, the secondary immunization was carried out by dorsal-subcutaneous administration of solutions or dispersions similar to those of the above-mentioned (1)-(10) again. […]
To a 96 well plate was added 5 μg/ml OVA at 100 µl/well, and the mixture was incubated at 4° C. overnight. After incubation, the mixture was washed three times with 200 μl of PBS-T (PBS (phosphate buffered saline)+0.05% (v/v) Tween 20) per well, and blocked with 100 μl of 5% FCS (fetal calf serum)/PBS solution per well at room temperature for 1-2 hr. Thereafter, the mixture was washed three times with PBS-T (200 μl/well), a diluted serum sample (100 l/well) or the same amount of 5% FCS/PBS solution as a control was added, and the mixture was incubated at 37° C. for 1 hr. To calculate concentration of the antibody, the standard of an anti-OVA-specific IgG1 subclass antibody diluted with 2% FCS/PBS solution was added at 100 ng/ml, 50 ng/ml, 25 ng/ml, 12.5 ng/ml, 6.25 ng/ml, 3.125 ng/ml, 1.56 ng/ml, 0.781 ng/ml, 0.391 ng/ml, 0.195 ng/ml, 0.098 ng/ml, 0 ng/ml, per 1 well. When an anti-OVA-specific IgG2a subclass antibody was measured, the standard of an anti-OVA-specific IgG2a subclass antibody was added at 50 ng/ml, 25 ng/ml, 12.5 ng/ml, 6.25 ng/ml, 3.125 ng/ml, 1.56 ng/ml, 0.781 ng/ml, 0.391 ng/ml, 0.195 ng/ml, 0.098 ng/ml, 0.049 ng/ml, 0 ng/ml, per 1 well. Thereafter, similar to the samples, the mixture was washed five times with PBS-T (200 μl/well), a diluted biotinylated anti-mouse IgG1 antibody and IgG2a antibody were added (100 μl/well), and the mixture was incubated at 37° C. for 45 min. Thereafter, the mixture was washed five times with PBS-T (200 μl/well), a diluted anti-biotin-HRP antibody was added (100 μl/well), and the mixture was incubated at 37° C. for another 30 min. Thereafter, the mixture was washed five times with PBS-T (200 μl/well), TMB substrate solution was added (100 μl/well), and the mixture was incubated at room temperature for 10-15 min. Thereafter, a reaction quenching liquid (2N sulfuric acid solution) was added (50 l/well) to discontinue a color developing reaction, and the absorbance (OD Value=450 nm) was measured by a microplate reader. A standard curve was drawn from the measured OD values, and the concentration was calculated. […]

Setting [1] is: conclusion from IgG1/IgG2a after primary immunization.
Where [2] appears, read: conclusion from IgG1/IgG2a after secondary immunization.

Molecules are shown by their SMILES. Counter-ions that a name gives are not always drawn.

Take `CCCCCCCCCCCCCCCCCCCC(=O)N[C@@H](CCCNC(=N)N)C(=O)NCCCCCCCC.Cl` [SZ183, N-[(1S)-4-guanidino-1-(octylcarbamoyl)butyl]icosanamide hydrochloride]: the adjuvant activity entry is, setting by setting: under setting [1], “have an adjuvant activity”; under setting [2], “have an adjuvant activity”.

As for `CCCCCCCCCCCCCCCCCC(=O)N[C@@H](CCCCN)C(=O)NCCCCCCCC.Cl` [SZ184, N-[(1S)-5-amino-1-(octylcarbamoyl)pentyl]octadecanamide hydrochloride], the adjuvant activity result under setting [1] is “have an adjuvant activity” and the adjuvant activity entry under setting [2] is “have an adjuvant activity”.

In the case of `CCCCCCCCCCCCCCCCCC(=O)N[C@@H](CCCCN)C(=O)NCCCCCCCCCCCC.Cl` [SZ185, N-[(1S)-5-amino-1-(dodecylcarbamoyl)pentyl]octadecanamide hydrochloride], the adjuvant activity result under setting [1] is recorded as “have an adjuvant activity” and the adjuvant activity entry under setting [2] is listed as “have an adjuvant activity”.

For the compound `CCCCCCCCCCCCNC(=O)[C@H](CCCNC(=N)N)NC(=O)OCCCCCCCCCCCC.Cl` [SZ187, dodecyl N-[(1S)-1-(dodecylcarbamoyl)-4-guanidino-butyl]carbamate hydrochloride], the adjuvant activity entry is “have an adjuvant activity” under setting [1] and “have an adjuvant activity” under setting [2].

As to `CCCCCCCCCCCCCCCCOC(=O)N[C@@H](CCCCN)C(=O)NCCCCCCCC.Cl` [SZ188, hexadecyl N-[(1S)-5-amino-1-(octylcarbamoyl)pentyl]carbamate hydrochloride], the adjuvant activity result is, setting by setting: under setting [1], “have an adjuvant activity”; under setting [2], “have an adjuvant activity”.

Consider `CCCCCCCCCCCCCCCCOC(=O)N[C@@H](CCCCN)C(=O)NCCCCCCCCCCCC.Cl` [SZ189, hexadecyl N-[(1S)-5-amino-1-(dodecylcarbamoyl)pentyl]carbamate hydrochloride], for which the adjuvant activity entry is given as “have an adjuvant activity” under setting [1] and “have an adjuvant activity” under setting [2].

`CCCCCCCCCCCCCCCCNC(=O)NCCCCNC(=N)N.Cl` [SZ190, 1-(4-guanidinobutyl)-3-hexadecyl-urea hydrochloride]: the adjuvant activity result under setting [1] was “have an adjuvant activity” and the adjuvant activity entry under setting [2] is given as “have an adjuvant activity”.

In the case of `CCCCCCCCCCCCCCCCCC(=O)N[C@H](CCCNC(=N)N)C(=O)NCCCCCCCCCCCC.Cl` [SZ191, N-[(1R)-1-(dodecylcarbamoyl)-4-guanidino-butyl]octadecanamide hydrochloride], the adjuvant activity result is recorded as “have an adjuvant activity” under setting [1] and “have an adjuvant activity” under setting [2].

On to `CCCCCCCCCCCCCCCCNC(=O)N[C@H](CCCNC(=N)N)C(=O)NCCCCCCCCCCCC.Cl` [SZ193, (2R)—N-dodecyl-5-guanidino-2-(hexadecylcarbamoylamino)pentanamide hydrochloride], for which the adjuvant activity result under setting [1] is recorded as “have an adjuvant activity” and the adjuvant activity entry under setting [2] is given as “have an adjuvant activity”.

Consider `CCCCCCCCCCCCCCCC(=O)N[C@H](CCCCN)C(=O)NCCCCCCCCCCCC.Cl` [SZ194, N-[(1R)-5-amino-1-(dodecylcarbamoyl)pentyl]hexadecanamide hydrochloride], for which the adjuvant activity result under setting [1] is on record as “have an adjuvant activity” and the adjuvant activity result under setting [2] is given as “have an adjuvant activity”.

On to `CCCCCCCCCCCCCCCCCC(=O)N[C@@H](CC(C)C)C(=O)NCCCCCCCCCCCC` [SZ195, N-[(1S)-1-(dodecylcarbamoyl)-3-methyl-butyl]octadecanamide], for which the adjuvant activity entry is “have an adjuvant activity” under setting [1] and “have an adjuvant activity” under setting [2].

As to `CCCCCCCCCCCCCCCCCC(=O)N[C@@H](CC(C)C)C(=O)NCCCCCCCC` [SZ196, N-[(1S)-3-methyl-1-(octylcarbamoyl)butyl]octadecanamide], the adjuvant activity result under setting [1] is given as “have an adjuvant activity” and the adjuvant activity entry under setting [2] is recorded as “have an adjuvant activity”.

For `CCCCCCCCCCCCCCCCCCCCCC(=O)N[C@@H](CC(C)C)C(=O)NCCCCCCCCCCCC` [SZ197, N-[(1S)-1-(dodecylcarbamoyl)-3-methyl-butyl]docosanamide], the adjuvant activity entry reads like this: under setting [1], “have an adjuvant activity”; under setting [2], “have an adjuvant activity”.

Regarding `CCCCCCCCCCCCCCCCCCCCCC(=O)N[C@@H](CC(C)C)C(=O)NCCCCCCCC` [SZ198, N-[(1S)-3-methyl-1-(octylcarbamoyl)butyl]docosanamide], the adjuvant activity entry runs as follows: under setting [1], “have an adjuvant activity”; under setting [2], “have an adjuvant activity”.

With `CCCCCCCCCCCCCCCC(=O)N[C@@H](CC(C)C)C(=O)NCCCCCCCC` [SZ199, N-[(1S)-3-methyl-1-(octylcarbamoyl)butyl]hexadecanamide], the adjuvant activity entry reads like this: under setting [1], “have an adjuvant activity”; under setting [2], “have an adjuvant activity”.

Regarding `CCCCCCCCCCCCCCCCNC(=O)N[C@@H](CC(C)C)C(=O)NCCCCCCCC` [SZ201, (2S)-2-(hexadecylcarbamoylamino)-4-methyl-N-octyl-pentanamide], the adjuvant activity result is, setting by setting: under setting [1], “have an adjuvant activity”; under setting [2], “have an adjuvant activity”.

With `CCCCCCCCCCCCCCCCOC(=O)N[C@@H](CC(C)C)C(=O)NCCCCCCCC` [SZ203, hexadecyl N-[(1S)-3-methyl-1-(octylcarbamoyl)butyl]carbamate], the adjuvant activity entry by setting is: under setting [1], “have an adjuvant activity”; under setting [2], “have an adjuvant activity”.

On to `CCCCCCCCCCCCCCCCCC(=O)NCC(C)(C)C(=O)NCCCCCCCCCCCC` [SZ204, N-[3-(dodecylamino)-2,2-dimethyl-3-oxo-propyl]octadecanamide], for which the adjuvant activity entry was “have an adjuvant activity” under setting [1] and “have an adjuvant activity” under setting [2].

As to `CCCCCCCCCCCCCCCCCC(=O)N[C@@H](CCCCNC(=N)N)C(=O)NCCCCCCCCCCCC.Cl` [SZ205, N-[(1S)-1-(dodecylcarbamoyl)-5-guanidino-pentyl]octadecanamide hydrochloride], the adjuvant activity entry under setting [1] is listed as “have an adjuvant activity” and the adjuvant activity result under setting [2] was “have an adjuvant activity”.

Regarding `CCCCCCCCCCCCCCCCCC(=O)N[C@@H](CCCCNC(=N)N)C(=O)NCCCCCC.Cl` [SZ206, N-[(1S)-1-(hexylcarbamoyl)-5-guanidino-pentyl]octadecanamide hydrochloride], the adjuvant activity entry is “have an adjuvant activity” under setting [1] and “have an adjuvant activity” under setting [2].

`CCCCCCCCCCCCNC(=O)[C@H](CCCNC(=N)N)N(CCCCCCC)CCCCCCC` [SZ207, (2S)-2-(diheptylamino)-N-dodecyl-5-guanidino-pentanamide dihydrochloride]: the adjuvant activity result by setting is: under setting [1], “have an adjuvant activity”; under setting [2], “have an adjuvant activity”.

Consider `CCCCCCCCCCCCCCCCCCCCCC(=O)NCCc1ccncc1.Cl` [SZ209, N-[2-(4-pyridyl)ethyl]docosanamide hydrochloride], for which the adjuvant activity result runs as follows: under setting [1], “have an adjuvant activity”; under setting [2], “have an adjuvant activity”.

(Values after patent publication US20180311342A1, “IMMUNOSTIMULATING AGENT” (AJINOMOTO CO., INC., priority 2017, published 2018).)
